Source: patent US20230235374A1, “High Throughput Assays for Detecting Translation Readthrough Inducers” (The Trustees of the University of Pennsylvania, priority 2021, published 2023)
Read-outs that look alike come from different tables or passages of the source.

Assays:
[1] = tested on: Atto(pep)-Stop-POST5 (RFC-dependent termination); experiment: Plate reader fluorescence anisotropy assay of pentapeptide release; format: biochemical, shrimp (Artemia salina); conditions: absence of ataluren
Protocol: Plate reader assays were run in a Tecan F200® 96-well plate reader (Greiner® black, non-binding, chimney flat) equipped with 640 nm excitation and 700 nm polarization filters using 96-well plates. Atto(pep)-Stop-POST5 in Buffer 4 (0.1 μM, 80 μl) containing GTP (1 mM) was added to plate wells±ataluren at 25° C. eRF1 and eRF3 aliquots stored at −80° C. were thawed for 15 s at 37° C. and added directly to a premade ice-cold GTP (1 mM)±ataluren solution in Buffer 4. The resulting release factor solution was incubated at 25° C. for 1 min, and then added quickly in 80 μL portions to the Atto(pep)-Stop-POST5 containing wells with a multichannel pipette to the Atto(pep)-Stop-Posts wells. The final concentrations were: eRF1, 0.025-0.4 μM; eRF3, 0.8 μM; Atto(pep)-Stop-Posts, 0.05 μM. Fluorescence anisotropy decay graphs were fit with GraphPad Prism, using the one phase decay model to obtain peptide dissociation rates.
Ensemble fluorescence anisotropy results using Atto(pep)-Stop-POST5. The fluorescence anisotropy of the pentapeptidyl moiety of Atto(pep)-Stop-POST5 was quite high (0.22), and decreased following addition of RFC, providing a convenient measure of the rate of pentapeptide release from the ribosome. […] Each such time dependency could be fit to a single exponential, giving the collected rate constants presented in FIG. 9G, in which the rate dependence as a function of RFC concentration was measured at 0, 200, 500, and 1,000 μM ataluren. In the absence of ataluren, EC50 (0.029±0.002 μM) and Vmax (0.31±0.02) values were obtained for pentapeptide release similar to those measured by smTIRF. In addition, as with the smTIRF results, Vmax values were unaffected by added ataluren but EC50 values increased, reaching ˜0.06 μM at 1000 μM.

[2] = tested on: Stop-POST5 complex (RFC-dependent termination); experiment: smTIRF assay of RFC-dependent peptide and tRNA release; format: biochemical, shrimp (Artemia salina); conditions: saturating RFC (0.65 μM eRF1, 1.3 μM eRF3)
[3] = tested on: Stop-POST5 complex (RFC-dependent termination); experiment: as above; format: biochemical, shrimp (Artemia salina)
Protocol: Immobilization of ribosome Stop-POST 5 complexes. PEGylated flow chambers were incubated in 0.5 mg/ml streptavidin for 5 mins and washed with Buffer 4. Biotinylated Stop-POST5 containing FK(atto647)VRQ-tRNA^Gln (Cy3) in the P-site, was formed at room temperature by incubating Stop-POST4, eEF1A, GTP, and Gln-(Cy3)tRNA^Gln for 5 mins and then injected into the streptavidin-coated slide chamber. After a 5 min incubation, excess unbound ribosome was flowed out. Then eRF1/eRF3±TRIDs was injected dynamically at 3 sec while recording. The injection dead time was subtracted for each particle.
Single-molecule fluorescence imaging. All sm-TIRF studies were carried out at 24° C. All dilutions, complex formation, and single-molecule imaging were carried out in Buffer 4 with an added enzymatic oxygen scavenging system of 2 mM protocatechuic acid (PCA), 50 nM protocatechunate 3,4 dioxygenase (PCD, Sigma Aldrich), 1 mM cyclooctatetraene (COT, Sigma Aldrich), 1 mM 4-nitrobenzyl alcohol (NBA, Sigma Aldrich), and 1.5 mM 6-hydroxy-2,5,7,8-tetramethyl-chromane-2-carboxylic acid (Trolox, Sigma-Aldrich) (Flis et al., Cell reports, 25(10), 2676-2688 (2018).
Image stacks were recorded at 100 ms frame rate on a custom-built objective-type total internal reflection fluorescence (TIRF) microscope based on a commercial inverted microscope (Eclipse Ti-E, Nikon) and capable of performing alternating-laser excitation (ALEX) between 532 nm and 640 nm laser beams using an acousto-optic tunable filter (AOTF, Chen et al., 2011). For the time-lapse experiment, timing of the movies, programmed into NIS-Elements (Nikon) microscope software, were recorded by illuminating the sample for 50-20 frames at 10 frames per s with 15 s or […] intervening dark intervals. Video recording was started and then eRF1/eRF3±TRIDs was injected from a triggered syringe pump at 3 sec while recording. The injection dead time was subtracted for each particle. Triggering of the shutters, AOTF, and pump was synchronized using LabView scripts driven from the camera exposure signal.
Data analysis. Collected movies were analyzed by a custom-made software program developed as an ImageJ plugin (Chen et al., Mol. Cell, 42, 367-377 (2011)), and further analyzed using Python. Distributions of peptide and tRNA dissociation times were fit to eq (5), using maximum likelihood estimation (Bevington and Robinson. Data Reduction and Error Analysis for the Physical Sciences. New York: McGraw-Hill, (2002); Woody et al., Biophys. J. 111, 273-282 (2016)), where P is the probability density.
smTIRF results using Atto(pep)-Cy-Stop-POST5 attached to surface-immobilized ribosomes. Although the distance between the two fluorophores is not close enough to produce FRET, fluorescent pairs could be identified by co-localization on the slide under alternating 532 nm and 640 nm total internal reflection fluorescence (TIRF) illumination. This permits near-simultaneous monitoring of the dynamics of peptide and P-site tRNA release from the Stop-POST5 complex following RFC binding.
To reduce photobleaching of each fluorophore, time-lapse movies were recorded with bursts of 20 or 50 frames at 100 ms frame intervals interleaved by 20 s intervals with the lasers shuttered. Total recording time for each trial was 20 min.
FIG. 8A and FIG. 8C show typical frame by frame recordings indicating a loss of signal for both labeled peptide and labeled tRNA after the addition of the RFC to Atto(pep)-Cy(tRNA)-Stop-POST5. Either peptide (a) or tRNA (b) can dissociate first, in approximately equal proportions. Photobleaching of Cy3-labeled tRNA and Atto647-labeled peptide in the absence of eRF1/eRF3 was much slower (FIG. 8E and FIG. 8F). Under the time lapse illumination employed, mean lifetimes for Atto647-peptide and Cy3-tRNA at 0.32 μM eRF1 and 2 μM eRF3 were each 2.45 min. […]

[4] = tested on: Trp-PRE6 complex; experiment: smFRET translocation of Trp-PRE6 to Trp-POST6; format: biochemical; conditions: 23° C.
Text: Changes in FRET (FIGS. 16E-16G) were used to determine the rate of translocation (FIG. 16H) and the residence time of deacylated tRNA dissociation from the E-site (FIG. 16I) as functions of [eEF2.GTP].

[5] = 0.32 μM eRF1 and 2 μM eRF3, time lapse illumination
[6] = absence of ataluren, Michaelis-Menten fit

RFC: release factor complex of eRF1 and eRF3 with GTP catalysing termination
EC50 [1]: 29 ± 2 nM
Vmax, pentapeptide release [1]: 0.31±0.02
rate constant, Atto(pep)-Cy(rbsm)-Stop-POST5 [2]: 0.26 ± 0.03 min⁻¹
rate constant, Atto(rbsm)-Cy(tRNA)-Stop-POST5 [2]: 0.20 ± 0.03 min⁻¹
mean lifetime, Atto647-peptide [3, 5]: 2.45 min
mean lifetime, Cy3-tRNA [3, 5]: 2.45 min
peptide release rate constants, As 2nd product ([3]; [RFC] 0.016 μM): 0.12 ± 0.03 min⁻¹
peptide release rate constants, Overall ([3]; [RFC] 0.016 μM): 0.13 ± 0.02 min⁻¹
tRNA release rate constants, As 2nd product ([3]; [RFC] 0.016 μM): 0.086 ± 0.023 min⁻¹
tRNA release rate constants, Overall ([3]; [RFC] 0.016 μM): 0.10 ± 0.02 min⁻¹
peptide release rate constants, As 2nd product ([3]; [RFC] 0.032 μM): 0.15 ± 0.02 min⁻¹
peptide release rate constants, Overall ([3]; [RFC] 0.032 μM): 0.16 ± 0.02 min⁻¹
tRNA release rate constants, As 2nd product ([3]; [RFC] 0.032 μM): 0.063 ± 0.021 min⁻¹
tRNA release rate constants, Overall ([3]; [RFC] 0.032 μM): 0.12 ± 0.02 min⁻¹
peptide release rate constants, As 2nd product ([3]; [RFC] 0.080 μM): 0.15 ± 0.02 min⁻¹
peptide release rate constants, Overall ([3]; [RFC] 0.080 μM): 0.21 ± 0.02 min⁻¹
tRNA release rate constants, As 2nd product ([3]; [RFC] 0.080 μM): 0.12 ± 0.02 min⁻¹
tRNA release rate constants, Overall ([3]; [RFC] 0.080 μM): 0.17 ± 0.03 min⁻¹
peptide release rate constants, As 2nd product ([3]; [RFC] 0.166 μM): 0.19 ± 0.02 min⁻¹
peptide release rate constants, Overall ([3]; [RFC] 0.166 μM): 0.24 ± 0.01 min⁻¹
tRNA release rate constants, As 2nd product ([3]; [RFC] 0.166 μM): 0.14 ± 0.03 min⁻¹
tRNA release rate constants, Overall ([3]; [RFC] 0.166 μM): 0.18 ± 0.02 min⁻¹
peptide release rate constants, As 2nd product ([3]; [RFC] 0.32 μM): 0.24 ± 0.03 min⁻¹
peptide release rate constants, Overall ([3]; [RFC] 0.32 μM): 0.26 ± 0.02 min⁻¹
tRNA release rate constants, As 2nd product ([3]; [RFC] 0.32 μM): 0.17 ± 0.03 min⁻¹
tRNA release rate constants, Overall ([3]; [RFC] 0.32 μM): 0.20 ± 0.02 min⁻¹
peptide release rate constants, As 2nd product ([3]; [RFC] 0.65 μM): 0.23 ± 0.04 min⁻¹
peptide release rate constants, Overall ([3]; [RFC] 0.65 μM): 0.27 ± 0.03 min⁻¹
tRNA release rate constants, As 2nd product ([3]; [RFC] 0.65 μM): 0.23 ± 0.04 min⁻¹
tRNA release rate constants, Overall ([3]; [RFC] 0.65 μM): 0.21 ± 0.03 min⁻¹
peptide release rate constants, As 2nd product ([3]; [RFC] 1.61 μM): 0.25 ± 0.03 min⁻¹
peptide release rate constants, Overall ([3]; [RFC] 1.61 μM): 0.26 ± 0.02 min⁻¹
tRNA release rate constants, As 2nd product ([3]; [RFC] 1.61 μM): 0.15 ± 0.02 min⁻¹
tRNA release rate constants, Overall ([3]; [RFC] 1.61 μM): 0.20 ± 0.02 min⁻¹
Vmax, peptide dissociation [3, 6]: ~0.27 ± 0.02 min⁻¹
Vmax, tRNA dissociation [3, 6]: 0.20 ± 0.02 min⁻¹
EC50 ([3]; absence of ataluren, read-out: EC50, peptide dissociation): ~20 nM
EC50 ([3]; absence of ataluren, read-out: EC50, tRNA dissociation): ~20 nM

B1: eEF2: yeast eukaryotic elongation factor 2 (protein, UniProt P32324 1-842, looked up)
Elongation factor 2: MVAFTVDQMRSLMDKVTNVRNMSVIAHVDHGKSTLTDSLVQRAGIISAAKAGEARFTDTRKDEQERGITIKSTAISLYSEMSDEDVKEIKQKTDGNSFLINLIDSPGHVDFSSEVTAALRVTDGALVVVDTIEGVCVQTETVLRQALGERIKPVVVINKVDRALLELQVSKEDLYQTFARTVESVNVIVSTYADEVLGDVQVYPARGTVAFGSGLHGWAFTIRQFATRYAKKFGVDKAKMMDRLWGDSFFNPKTKKWTNKDTDAEGKPLERAFNMFILDPIFRLFTAIMNFKKDEIPVLLEKLEIVLKGDEKDLEGKALLKVVMRKFLPAADALLEMIVLHLPSPVTAQAYRAEQLYEGPADDANCIAIKNCDPKADLMLYVSKMVPTSDKGRFYAFGRVFAGTVKSGQKVRIQGPNYVPGKKDDLFIKAIQRVVLMMGRFVEPIDDCPAGNIIGLVGIDQFLLKTGTLTTSETAHNMKVMKFSVSPVVQVAVEVKNANDLPKLVEGLKRLSKSDPCVLTYMSESGEHIVAGTGELHLEICLQDLEHDHAGVPLKISPPVVAYRETVESESSQTALSKSPNKHNRIYLKAEPIDEEVSLAIENGIINPRDDFKARARIMADDYGWDVTDARKIWCFGPDGNGPNLVIDQTKAVQYLHEIKDSVVAAFQWATKEGPIFGEEMRSVRVNILDVTLHADAIHRGGGQIIPTMRRATYAGFLLADPKIQEPVFLVEIQCPEQAVGGIYSVLNKKRGQVVSEEQRPGTPLFTVKAYLPVNESFGFTGELRQATGGQAFPQMVFDHWSTLGSDPLDPTSKAGEIVLAARKRHGMKEEVPGWQEYYDKL
kcat, translocation [4]: 1.0 s⁻¹
Km ([4]; read-out: Km^eEF2, translocation): 0.28 µM
